This is an account of results in ChEMBL document CHEMBL3507680, “University of Dundee, Gates Library screen for HepG2 cell viability”.

SMILES strings stand for the structures.

This series in a line: Human HepG2 cell viability assay in 384 well format. The series is classed as toxicity, cell-based. The arrangement: dose 125 nL, time 70.5 hour; cytotoxicity at 70.5 h: concentration not given beside the values. Particulars: HepG2 cells, read-out: Inhibition.
As to `CCOc1ncccc1NC(=O)NC1CCCN(S(C)(=O)=O)C1` (centres undefined), the cytotoxicity at 70.5 h is -0.949%.

As for `CCCN1CCCn2nc(CNC(=O)CCc3scnc3C)cc2C1`, the cytotoxicity at 70.5 h is -1.73%.

For the compound `CN1C(=O)CCC12CCCN(C(=O)c1ccncc1F)C2` (centres undefined), the cytotoxicity at 70.5 h is -5.46%.

For the compound `Cn1cnc(S(=O)(=O)N2CCOCC2)c1Cl`, the cytotoxicity at 70.5 h is -3.62%.

For the compound `Cc1nnc(CN2C[C@H](NC(=O)CC3CCCC3)[C@@H](C3CC3)C2)s1`, the cytotoxicity at 70.5 h was -7.74%.

On to `O=C(O)c1ccccc1-n1cnc(CN2CCc3ccccc3C2)c1`, for which the cytotoxicity at 70.5 h was determined as 27.7%.

Turning to `CCc1cnc(CN(C)C2CCN(CC3CCOCC3)C2)o1` (centres undefined), the cytotoxicity at 70.5 h was found to be 4.66%.

Turning to `CCn1c(CN2CCCC2)nnc1C1CCN(Cc2ccncc2)CC1`, the cytotoxicity at 70.5 h was determined as 19.4%.

Take `Fc1cnc(N2CC[C@@H]3O[C@@H](COCc4cccnc4)CC[C@@H]32)nc1`: the cytotoxicity at 70.5 h was -6.15%.

Take `O=C(O)c1ccccc1-c1ccc(CN2CC(c3ccncn3)C2)o1`: the cytotoxicity at 70.5 h is -5.44%.

Consider `O=C(Nc1cccc(N2CCN(CC3CC3)CC2)c1)C1CCCO1` (centres undefined), for which the cytotoxicity at 70.5 h came to 17%.

In the case of `CN(Cc1ccc2c(c1)OCCO2)Cn1nc(C(C)(C)C)ccc1=O`, the cytotoxicity at 70.5 h was determined as 12.7%.

As to `Cc1c(Cl)c(C(F)(F)F)nn1C(C)C(=O)NC1CCN(C)CC1` (centres undefined), the cytotoxicity at 70.5 h amounted to 7.5%.

`COc1ccc(CN2CC[C@@H](O)[C@@H]2Cc2ccccc2)cc1`: the cytotoxicity at 70.5 h was 38.7%.

Regarding `CC(C)CN1CCC(NC(=O)N(C)Cc2csc3ccccc23)CC1`, the cytotoxicity at 70.5 h was -3.08%.

Take `CN(C)C(=O)C1CCC2(CCNCC2)C1` (centres undefined): the cytotoxicity at 70.5 h was -2.3%.

Take `COCc1ccccc1NC(=O)c1ccoc1`: the cytotoxicity at 70.5 h is -15%.

`CC(C)[C@@H]1CN(C(=O)CN(C)Cc2ccccc2)C[C@H]1C(=O)O`: the cytotoxicity at 70.5 h was -6.53%.

On to `Cc1nc(CN2CCC(CNC(=O)CCC3CCCC3)CC2)oc1C`, for which the cytotoxicity at 70.5 h was -2.1%.

For the compound `COc1cc(C)nc(N2CCN(C(=O)COC3CCCC3)CC2)n1`, the cytotoxicity at 70.5 h was -4.07%.

As to `CCNC(=O)Cc1ccc(NC(=O)NC(CC)CC)cc1`, the cytotoxicity at 70.5 h stood at 1.05%.

Regarding `COc1ccc(C(=O)C2CCCN(c3cc(OC)ncn3)C2)c(C)c1` (centres undefined), the cytotoxicity at 70.5 h came out at 10.1%.

Take `Cc1cnn(CC2CN(Cc3nnc(-c4ccccc4)o3)CCO2)c1` (centres undefined): the cytotoxicity at 70.5 h is -8.48%.

Turning to `O=C(COc1ccc2c(c1)CCCC2=O)NCc1ccco1`, the cytotoxicity at 70.5 h is -4.86%.

As for `c1ccc(CN2CCc3ncnc(-c4cccnc4)c3CC2)nc1`, the cytotoxicity at 70.5 h was -7.48%.

As to `O=C([C@@H]1COC[C@H]2CN(C3CCOCC3)C[C@H]21)N1CCCO1`, the cytotoxicity at 70.5 h stood at 14.5%.

On to `O=C(NCc1cccnc1N1CCc2ccccc2C1)c1cc(=O)[nH][nH]1`, for which the cytotoxicity at 70.5 h is -3.06%.

For `CC(C)N(CCNC(=O)c1[nH]nc2ccc(I)cc12)C(C)C`, the cytotoxicity at 70.5 h was -1.97%.

Take `Cc1nc(CN2CCCC(CCc3ccccc3C(F)(F)F)C2)co1` (centres undefined): the cytotoxicity at 70.5 h came to 22.6%.

With `CCc1ccc(-c2cn(CCSc3ncn[nH]3)nn2)nc1`, the cytotoxicity at 70.5 h was -1.59%.

On to `CC(=O)N(Cc1ncc(C)o1)C1CCN(Cc2cccc(C#N)c2)C1` (centres undefined), for which the cytotoxicity at 70.5 h is -5.2%.

Consider `CC(C)CC(NS(C)(=O)=O)C(=O)N(C)Cc1nnc2n1CCC2` (centres undefined), for which the cytotoxicity at 70.5 h was -8.38%.

Take `COc1cc(CNCCn2ccnc2)cc2c1OCO2`: the cytotoxicity at 70.5 h stood at 1.27%.

Take `OC1(CN2CCC(Cc3ncccn3)CC2)CCOCC1`: the cytotoxicity at 70.5 h is 13.1%.

For `CC(C)c1nnc(CN(C)Cc2ccccc2-c2ccccc2)o1`, the cytotoxicity at 70.5 h was -6.61%.

`COCCN1C[C@H]2[C@@H](C1)N(Cc1cnn(C)c1)CC[C@H]2OC`: the cytotoxicity at 70.5 h was -11.3%.

Take `Cc1nnc2n1CCN(C(C)c1nnc(-c3cccs3)o1)C2` (centres undefined): the cytotoxicity at 70.5 h is -8.71%.

Take `CN(C)C(=O)CN1CCO[C@H]2CN(c3ccccn3)C[C@H]21`: the cytotoxicity at 70.5 h is -3.6%.

In the case of `CSc1ccc2cc(CN(C)CCO)c(=O)[nH]c2c1`, the cytotoxicity at 70.5 h was -16.3%.

As for `O=C(c1ccc2c(c1)CCO2)N1CCN(c2cnccn2)CC1`, the cytotoxicity at 70.5 h is -5.33%.

On to `CN(C)Cc1nnc(C2CCCN(c3cc(C(F)(F)F)ccn3)C2)n1C` (centres undefined), for which the cytotoxicity at 70.5 h was -11.1%.

Take `NC(=O)C1=NC2=NS(=O)(=O)c3ccccc3N2N1Cc1ccccc1Cl`: the cytotoxicity at 70.5 h is -7.31%.

Turning to `CNC(=O)c1cc(OC)c(OC)cc1N(C)S(C)(=O)=O`, the cytotoxicity at 70.5 h was -7.84%.

In the case of `NC(=O)CSCC(=O)NC1(c2cccc(Br)c2)CC1`, the cytotoxicity at 70.5 h is 32.5%.

Regarding `CS(=O)(=O)N1CCC(n2nnn(-c3ccccc3)c2=O)CC1`, the cytotoxicity at 70.5 h is -1.71%.

For `Cc1cc(F)cc2c(N3CCC(S(N)(=O)=O)CC3)c(C#N)cnc12`, the cytotoxicity at 70.5 h is -4.86%.

Take `CCCN(Cc1cccnc1)C(=O)C1CCCN(C)C1` (centres undefined): the cytotoxicity at 70.5 h is 2.68%.

With `CN(C(=O)Cc1coc(-c2ccccc2)n1)C1(C#N)CCC1`, the cytotoxicity at 70.5 h was 1.14%.

As for `O=C(c1ccccc1)N1CCC2(CC1)CC(Oc1ccccc1)CO2` (centres undefined), the cytotoxicity at 70.5 h was -11.5%.

`CC(C)c1noc(CN2CCN(C(=O)OC(C)(C)C)C(C)C2)n1` (centres undefined): the cytotoxicity at 70.5 h was 7.76%.

For `Cc1cc(C)c2nc(CN3CCOCC(O)C3)cc(O)c2c1` (centres undefined), the cytotoxicity at 70.5 h is -0.735%.

With `CS(=O)(=O)NCc1ncn2c1CN(C(=O)C1CCCCC1)CCC2`, the cytotoxicity at 70.5 h was -4.09%.

As to `O=C(O)c1ccc(CNC(=O)C2CCN(C(=O)C3CCC3)CC2)s1`, the cytotoxicity at 70.5 h was -12.2%.

As for `Cc1cc(CN(CC(N)=O)CC(C)C)no1`, the cytotoxicity at 70.5 h is -4.27%.

As for `c1ccc(CN2CCC3(COCc4cnc(NCC5CC5)nc43)C2)cc1` (centres undefined), the cytotoxicity at 70.5 h was -3.62%.

Regarding `CCC[C@]12CN3C[C@](CCC)(CN(C1)C3c1[nH]c(=O)[nH]c(=O)c1C)C2=O` (some centres undefined), the cytotoxicity at 70.5 h was -10.7%.

On to `CC(C)c1ncncc1C(=O)N1CCCN(Cc2ccccc2)CC1`, for which the cytotoxicity at 70.5 h is -15.3%.

On to `CN1CCOC(C(=O)N2CCC3(CCCCC3)C2)C1` (centres undefined), for which the cytotoxicity at 70.5 h is -5.38%.

For `CN(CC(=O)N1CCCCC1c1nccs1)C1CC1` (centres undefined), the cytotoxicity at 70.5 h was 28.5%.

As to `CCn1c(C)cc(-c2csc(Cn3ccc(=O)[nH]c3=O)n2)c1C`, the cytotoxicity at 70.5 h is -4.42%.

For the compound `CCc1c(C)nc2ccccc2c1N1CCC(NC(C)=O)CC1`, the cytotoxicity at 70.5 h was -6.65%.

As to `O=C(c1ccc[nH]1)N1CCc2ncc(Cn3cccn3)n2CC1`, the cytotoxicity at 70.5 h came to 18.1%.

In the case of `CCCc1nc2c(c(C)c(C)n2Cc2ccncc2)c(N)c1CC`, the cytotoxicity at 70.5 h worked out at 53.6%.

Consider `Cc1cc(NCCN)nc(-c2ccccc2O)n1`, for which the cytotoxicity at 70.5 h came to 35.9%.

As to `Cc1noc(C)c1CCC(=O)NCC1(O)CCCN(c2ccccn2)C1` (centres undefined), the cytotoxicity at 70.5 h was -5.72%.

Consider `CC(NC(=O)N(C)CCOc1ccccc1F)c1nncn1C` (centres undefined), for which the cytotoxicity at 70.5 h is -4.64%.

For `Cc1ccc(-n2cc(C(=O)NCC(C)Cn3cccn3)nn2)cc1` (centres undefined), the cytotoxicity at 70.5 h was -14.5%.

As to `CC(O)CN1CCN(C(=O)c2ccn(-c3ccc(F)cc3)n2)CC1` (centres undefined), the cytotoxicity at 70.5 h is -3.45%.

In the case of `N#Cc1c(Cl)nsc1NCC1(c2ccccc2)CCC1`, the cytotoxicity at 70.5 h was found to be 17.1%.

Regarding `O=C(c1ccncc1)N1CCCn2nnc(Cn3cccn3)c2C1`, the cytotoxicity at 70.5 h was -8.56%.

`CC(C)[C@@H]1CN(S(=O)(=O)Cc2ccccc2)C[C@H]1C(=O)O`: the cytotoxicity at 70.5 h was -3.52%.

Regarding `COCCOCC(C)NC(=O)COc1nn(C)c2nc(C)cc(C)c12` (centres undefined), the cytotoxicity at 70.5 h is -11%.

For the compound `Cc1cccc2c1nc1n2[C@@H](CNC(=O)CCC(=O)O)COC1`, the cytotoxicity at 70.5 h was -4.85%.

With `OCC1CCCN(Cc2c(C3CCCC3)[nH]c3ncccc23)C1` (centres undefined), the cytotoxicity at 70.5 h amounted to 13.9%.

Consider `Cc1cc(C(=O)Nc2ccc3c(ccn3CCN3CCOCC3)c2)on1`, for which the cytotoxicity at 70.5 h was -5.31%.

Take `CC(C#N)CSc1ccccc1NCC(=O)NCc1cccs1` (centres undefined): the cytotoxicity at 70.5 h is 0.858%.

In the case of `CCOC(=O)NCCC(=O)NCc1ccc(Oc2ccc(F)cc2)nc1`, the cytotoxicity at 70.5 h amounted to 1.62%.

Consider `CN1CCCCC1c1ncc2c(n1)CCN(Cc1ccc(Cl)c(F)c1)C2` (centres undefined), for which the cytotoxicity at 70.5 h is -3.53%.

`CC(=O)c1cccc(OCCCC(=O)NCC2CCCN2C)c1` (centres undefined): the cytotoxicity at 70.5 h was determined as 7.09%.

As for `O=C(Nc1ccccc1)C1CN(Cc2cccs2)CC12CCOCC2` (centres undefined), the cytotoxicity at 70.5 h is -6.1%.

Consider `Cc1ccn(-c2ccccc2NCc2ccccn2)n1`, for which the cytotoxicity at 70.5 h is -8%.

Take `CC(C)c1nnc(NC(=O)NCc2cccnc2NCCN(C)C)s1`: the cytotoxicity at 70.5 h is 4.5%.

Consider `CCN1CC2(CC1=O)CN(C(=O)COC)CCN(S(C)(=O)=O)C2` (centres undefined), for which the cytotoxicity at 70.5 h was -11%.

On to `CCC1(c2ccc(NS(=O)(=O)N(C)C)cc2)CCC(=O)NC1=O` (centres undefined), for which the cytotoxicity at 70.5 h was -2.76%.

Consider `COc1ncccc1C(Cc1ccsc1)NC(=O)Cn1cccnc1=O` (centres undefined), for which the cytotoxicity at 70.5 h turned out to be 22.1%.

With `Cc1cc(CN(C)CC2CC(C3CCCCC3)=NO2)no1` (centres undefined), the cytotoxicity at 70.5 h was found to be 0.975%.

In the case of `CNC(=O)C1CN(C)CCN(CCCOc2ccccc2F)C1` (centres undefined), the cytotoxicity at 70.5 h is -3.84%.

As for `CCN1C(=O)C[C@@H]2[C@@H]1CCN2S(=O)(=O)c1ccccc1`, the cytotoxicity at 70.5 h was -12.3%.

`CC(C)[C@@H]1CN(Cc2ccccc2C#N)C[C@H]1NC(=O)N(C)C`: the cytotoxicity at 70.5 h was -1.2%.

With `CCn1ccnc1CN1CCN(C(C)C(=O)N2CCCC2)CC1` (centres undefined), the cytotoxicity at 70.5 h was -3.5%.

For `CN(C)CCNC(=O)c1nc2c(o1)CN(C(=O)c1cccnc1)C2`, the cytotoxicity at 70.5 h came out at 10.9%.

On to `CC(C)NC(=O)C1CN(Cc2cccs2)Cc2ccnn2C1` (centres undefined), for which the cytotoxicity at 70.5 h came to 3.45%.

`CNS(=O)(=O)c1ccccc1N1CCN(C(C)C(N)=O)CC1` (centres undefined): the cytotoxicity at 70.5 h was -3.93%.

`c1ccc(Cn2ccnc2CNCC2CCCN2c2cccnn2)cc1` (centres undefined): the cytotoxicity at 70.5 h was found to be 4.91%.

With `CCn1ncc2c1C(COC)CN(Cc1nccs1)C2` (centres undefined), the cytotoxicity at 70.5 h turned out to be 30.6%.

For the compound `CC(C)C1Nc2ccccc2C(=O)N1CC(=O)Nc1nc2c(s1)CCC2` (centres undefined), the cytotoxicity at 70.5 h was -15.3%.

For the compound `CS(=O)(=O)N1CCO[C@@H]2CCN(C(=O)c3cccs3)CC[C@H]21`, the cytotoxicity at 70.5 h is 1.12%.

For the compound `Fc1cccc2c1CCC2NCc1cnc(N2CCOCC2)nc1` (centres undefined), the cytotoxicity at 70.5 h is -1.25%.

For `Cc1cccc2c1nc1n2[C@@H](CNC(=O)c2cnccn2)COC1`, the cytotoxicity at 70.5 h was 12.8%.
